Reference: US20260356819A1, “OXOISOINDOLINYL-SUBSTITUTED […] DERIVATIVE AND USE THEREOF” (GLUETACS THERAPEUTICS (SHANGHAI) CO., LTD., priority 2023, published 2026)
pIC50: −log10 of the molar value.

Tests used:
[1] = target: T1, IKZF1 (Homo sapiens, UniProt Q13422+Q96SW2); assay: Western blot degradation of IKZF1 in hPBMCs (24 h); assay type: cell-based; settings: compounds at 50 nM and 500 nM
T1 construct: The supernatant was aspirated as the extracted total cell protein; endogenous in cells; host or cells: human peripheral blood mononuclear cells (hPBMCs)
T1 sequence (Q13422 whole entry): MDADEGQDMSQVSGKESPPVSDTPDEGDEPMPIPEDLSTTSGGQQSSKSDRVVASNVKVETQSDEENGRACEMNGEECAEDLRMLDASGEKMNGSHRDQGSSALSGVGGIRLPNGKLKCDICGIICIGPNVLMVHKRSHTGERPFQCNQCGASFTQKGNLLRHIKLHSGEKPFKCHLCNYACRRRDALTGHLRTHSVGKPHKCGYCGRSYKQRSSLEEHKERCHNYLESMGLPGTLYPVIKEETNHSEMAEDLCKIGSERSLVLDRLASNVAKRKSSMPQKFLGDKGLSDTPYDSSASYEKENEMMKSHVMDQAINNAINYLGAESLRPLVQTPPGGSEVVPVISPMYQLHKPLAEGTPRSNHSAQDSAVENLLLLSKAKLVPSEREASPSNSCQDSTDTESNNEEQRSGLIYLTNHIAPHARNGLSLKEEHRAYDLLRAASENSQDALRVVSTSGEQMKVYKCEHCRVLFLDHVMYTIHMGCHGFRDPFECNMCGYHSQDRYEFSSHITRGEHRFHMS
T1 sequence (Q96SW2 whole entry): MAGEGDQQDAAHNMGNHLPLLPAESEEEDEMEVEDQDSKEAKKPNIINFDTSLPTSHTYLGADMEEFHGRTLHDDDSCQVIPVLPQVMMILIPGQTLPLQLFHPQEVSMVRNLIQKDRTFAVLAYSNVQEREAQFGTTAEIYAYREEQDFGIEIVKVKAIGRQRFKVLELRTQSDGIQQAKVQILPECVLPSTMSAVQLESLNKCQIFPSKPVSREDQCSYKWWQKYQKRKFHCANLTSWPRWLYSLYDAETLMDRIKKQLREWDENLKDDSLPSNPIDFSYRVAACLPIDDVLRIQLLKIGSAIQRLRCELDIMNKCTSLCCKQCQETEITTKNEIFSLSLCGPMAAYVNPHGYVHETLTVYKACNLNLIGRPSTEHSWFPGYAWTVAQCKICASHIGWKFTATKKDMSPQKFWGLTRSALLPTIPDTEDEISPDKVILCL
T1 sequence (Q16531 whole entry partner): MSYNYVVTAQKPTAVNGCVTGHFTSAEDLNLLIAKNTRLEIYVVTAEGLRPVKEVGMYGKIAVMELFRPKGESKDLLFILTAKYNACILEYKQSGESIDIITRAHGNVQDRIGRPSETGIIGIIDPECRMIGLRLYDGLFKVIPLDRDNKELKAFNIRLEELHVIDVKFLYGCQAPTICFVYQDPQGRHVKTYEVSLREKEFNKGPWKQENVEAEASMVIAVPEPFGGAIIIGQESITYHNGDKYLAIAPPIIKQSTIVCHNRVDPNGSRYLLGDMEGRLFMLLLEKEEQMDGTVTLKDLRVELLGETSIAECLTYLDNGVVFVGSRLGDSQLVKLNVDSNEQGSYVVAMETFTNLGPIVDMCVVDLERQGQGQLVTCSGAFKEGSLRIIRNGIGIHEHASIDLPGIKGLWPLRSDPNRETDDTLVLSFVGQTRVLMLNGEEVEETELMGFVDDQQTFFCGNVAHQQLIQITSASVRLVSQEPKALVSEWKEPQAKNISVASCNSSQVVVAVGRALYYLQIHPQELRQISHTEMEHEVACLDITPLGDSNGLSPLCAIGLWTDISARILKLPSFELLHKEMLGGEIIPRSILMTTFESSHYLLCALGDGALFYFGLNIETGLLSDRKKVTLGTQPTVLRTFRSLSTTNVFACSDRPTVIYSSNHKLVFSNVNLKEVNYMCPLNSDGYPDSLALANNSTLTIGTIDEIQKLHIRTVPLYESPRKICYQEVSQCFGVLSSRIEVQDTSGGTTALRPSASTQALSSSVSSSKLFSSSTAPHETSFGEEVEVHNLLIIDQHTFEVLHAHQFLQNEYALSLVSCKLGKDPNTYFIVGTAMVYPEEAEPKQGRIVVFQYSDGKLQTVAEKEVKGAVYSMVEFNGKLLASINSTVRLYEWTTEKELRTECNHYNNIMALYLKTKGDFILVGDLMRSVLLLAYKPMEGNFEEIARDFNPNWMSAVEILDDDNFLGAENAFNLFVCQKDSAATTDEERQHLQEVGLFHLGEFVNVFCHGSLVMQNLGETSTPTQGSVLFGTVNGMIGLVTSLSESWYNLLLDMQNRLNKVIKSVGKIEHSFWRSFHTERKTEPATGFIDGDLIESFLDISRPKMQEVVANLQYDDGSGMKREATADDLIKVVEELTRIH
Procedure, shortened: (§1)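 In this assay, each compound was incubated with human PBMCs for 24 h at 50 nM and 500 nM. Target levels were measured by Western blot densitometry normalised to an internal control.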

[2] = target: T2, GSPT1 (Homo sapiens, UniProt P15170+Q96SW2); assay: Western blot degradation of GSPT1 in hPBMCs (24 h); assay type: cell-based; settings: compounds at 50 nM and 500 nM
T2 construct: The supernatant was aspirated as the extracted total cell protein; endogenous in cells; host or cells: human peripheral blood mononuclear cells (hPBMCs)
T2 sequence (P15170 whole entry): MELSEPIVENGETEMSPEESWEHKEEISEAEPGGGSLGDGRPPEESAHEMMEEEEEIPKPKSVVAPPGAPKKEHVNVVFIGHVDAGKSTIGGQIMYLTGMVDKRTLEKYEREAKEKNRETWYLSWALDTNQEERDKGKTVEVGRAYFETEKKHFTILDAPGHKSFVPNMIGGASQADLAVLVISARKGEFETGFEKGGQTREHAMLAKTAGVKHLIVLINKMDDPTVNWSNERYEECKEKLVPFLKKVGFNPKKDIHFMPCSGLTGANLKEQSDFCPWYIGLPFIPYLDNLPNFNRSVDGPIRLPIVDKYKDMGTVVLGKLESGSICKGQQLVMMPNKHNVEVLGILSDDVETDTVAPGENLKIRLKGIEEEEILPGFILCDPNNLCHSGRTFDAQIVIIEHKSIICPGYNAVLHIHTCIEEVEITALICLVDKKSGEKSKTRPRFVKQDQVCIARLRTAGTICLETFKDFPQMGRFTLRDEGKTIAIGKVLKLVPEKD
T2 sequence (Q96SW2 whole entry): as the sequence (Q96SW2 whole entry) above
T2 sequence (Q16531 whole entry partner): as the sequence (Q16531 whole entry partner) above
Procedure, shortened: as §1

[3] = target: T3, IKZF3 (Homo sapiens, UniProt Q96SW2+Q9UKT9); assay: Western blot degradation of IKZF3 in hPBMCs (24 h); assay type: cell-based; settings: compounds at 50 nM and 500 nM
T3 construct: The supernatant was aspirated as the extracted total cell protein; endogenous in cells; host or cells: human peripheral blood mononuclear cells (hPBMCs)
T3 sequence (Q9UKT9 whole entry): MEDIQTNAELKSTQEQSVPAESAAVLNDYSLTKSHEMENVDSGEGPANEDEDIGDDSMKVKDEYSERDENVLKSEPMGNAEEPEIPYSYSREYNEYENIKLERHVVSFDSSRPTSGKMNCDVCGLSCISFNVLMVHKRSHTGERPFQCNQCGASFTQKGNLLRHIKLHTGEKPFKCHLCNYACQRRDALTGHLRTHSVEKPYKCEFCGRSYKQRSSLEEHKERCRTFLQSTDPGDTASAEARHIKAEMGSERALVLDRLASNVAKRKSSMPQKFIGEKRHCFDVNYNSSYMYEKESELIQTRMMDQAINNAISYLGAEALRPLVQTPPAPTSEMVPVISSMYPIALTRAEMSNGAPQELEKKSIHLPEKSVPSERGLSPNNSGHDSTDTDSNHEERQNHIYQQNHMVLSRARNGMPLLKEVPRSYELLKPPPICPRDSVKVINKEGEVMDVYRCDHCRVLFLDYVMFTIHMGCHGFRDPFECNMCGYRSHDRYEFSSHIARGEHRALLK
T3 sequence (Q96SW2 whole entry): as the sequence (Q96SW2 whole entry) above
T3 sequence (Q16531 whole entry partner): as the sequence (Q16531 whole entry partner) above
Procedure, shortened: as §1

[4] = test system: Jurkat cells; assay: Inhibition of proliferation of T lymphocytic leukemia cells Jurkat (cell viability assay, 96 h); assay type: cell-based, human; settings: read-out: inhibitory activity (IC50) against tumor cells proliferation, Jurkat
Description: (§2) The tumor cells used herein were cultured in a cell culture medium listed in table 2 at 37 °C in an incubator with 5% CO2. Prior to experimentation, all cell lines used were correctly identified by STR profiling, and tested negative for Mycoplasma contamination using a Mycoplasma detection kit through routine screenings.
(§3) The IC50 values of the compounds of the present disclosure (including the compounds in Table 1, and Examples 1-498) were determined using the CellTiter-Meiluncell Luminescent Cell Viability Assay Kit from Dalian Meilun Biotech Co., Ltd. The detailed procedure is as follows: Tumor cells were seeded in 96-well cell culture plates at the densities specified in Table 3. On the following day, the test compounds of the present disclosure were subjected to serial dilution. […] Subsequently, 0.5 μL of the test compound dilution was transferred into the 96-well plate containing the cells, with each well containing 100 μL of cell culture medium. […] Into the 96-well plate, the diluted test compounds and corresponding detection reagents were added, resulting in final test compound concentrations of 500 nM and 10 nM, respectively. The experimental procedure is described below using the diluted 2 μM test compound as an example.
(§4) 0.5 μL of the aforementioned diluted compound of the present disclosure (including the compounds in Table 1, and Examples 1-498) was added to the seeded cells in 100 μL of medium, yielding a final test compound concentration of 10 nM. After the cells were treated with the compounds of the present disclosure for a specified period, the cell viability assay reagent was added to the culture medium according to the kit's instructions to determine cell viability. […] All controls were treated using the same procedure as the compounds of the present disclosure. The growth inhibition curves for the compounds of the present disclosure were plotted using Prism GraphPad software, and the IC50 values were calculated therefrom.

[5] = target: T4, IKZF2 (Homo sapiens, UniProt Q96SW2+Q9UKS7); assay: Western blot degradation of IKZF2 in hPBMCs (24 h); assay type: cell-based; settings: compounds at 50 nM and 500 nM
T4 construct: The supernatant was aspirated as the extracted total cell protein; endogenous in cells; host or cells: human peripheral blood mononuclear cells (hPBMCs)
T4 sequence (Q9UKS7 whole entry): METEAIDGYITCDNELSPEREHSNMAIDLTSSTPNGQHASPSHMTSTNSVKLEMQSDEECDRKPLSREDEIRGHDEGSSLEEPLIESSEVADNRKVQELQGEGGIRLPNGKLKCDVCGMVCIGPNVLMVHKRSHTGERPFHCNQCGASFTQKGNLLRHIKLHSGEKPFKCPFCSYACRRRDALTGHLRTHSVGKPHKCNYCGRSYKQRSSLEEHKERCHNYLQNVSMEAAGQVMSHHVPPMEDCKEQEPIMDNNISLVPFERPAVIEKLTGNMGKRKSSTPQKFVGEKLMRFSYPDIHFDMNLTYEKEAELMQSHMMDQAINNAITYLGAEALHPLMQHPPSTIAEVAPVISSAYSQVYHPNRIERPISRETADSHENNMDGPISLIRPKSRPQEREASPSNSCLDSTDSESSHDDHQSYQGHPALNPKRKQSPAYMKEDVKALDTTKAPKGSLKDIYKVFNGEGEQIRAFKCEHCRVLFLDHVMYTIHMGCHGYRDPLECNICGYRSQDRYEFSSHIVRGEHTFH
T4 sequence (Q96SW2 whole entry): as the sequence (Q96SW2 whole entry) above
T4 sequence (Q16531 whole entry partner): as the sequence (Q16531 whole entry partner) above
Procedure, shortened: as §1

[6] = target: T5, CK1α (Homo sapiens, UniProt P48729+Q96SW2); assay: Western blot degradation of CK1α in hPBMCs (24 h); assay type: cell-based; settings: compounds at 50 nM and 500 nM
T5 construct: The supernatant was aspirated as the extracted total cell protein; endogenous in cells; host or cells: human peripheral blood mononuclear cells (hPBMCs)
T5 sequence (P48729 whole entry): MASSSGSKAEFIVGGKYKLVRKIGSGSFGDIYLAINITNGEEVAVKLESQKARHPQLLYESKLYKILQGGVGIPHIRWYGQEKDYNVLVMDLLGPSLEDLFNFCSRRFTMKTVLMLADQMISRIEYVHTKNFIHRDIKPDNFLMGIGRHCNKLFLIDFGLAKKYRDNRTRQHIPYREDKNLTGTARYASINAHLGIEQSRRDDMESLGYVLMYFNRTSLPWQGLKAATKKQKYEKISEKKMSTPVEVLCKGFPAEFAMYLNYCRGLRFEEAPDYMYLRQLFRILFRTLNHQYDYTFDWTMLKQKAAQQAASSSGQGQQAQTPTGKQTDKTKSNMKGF
T5 sequence (Q96SW2 whole entry): as the sequence (Q96SW2 whole entry) above
T5 sequence (Q16531 whole entry partner): as the sequence (Q16531 whole entry partner) above
Procedure, shortened: as §1

[7] = test system: MM.1S cells; assay: Inhibition of proliferation of multiple myeloma cells MM.1S (cell viability assay, 96 h); assay type: cell-based, human; settings: read-out: inhibitory activity (IC50) against tumor cells proliferation, MM.1S
Description: as §2, §3, §4

[8] = target: T6, WEE1 (Homo sapiens, UniProt P30291+Q96SW2); assay: Western blot degradation of WEE1 in hPBMCs (24 h); assay type: cell-based; settings: compounds at 50 nM and 500 nM
T6 construct: The supernatant was aspirated as the extracted total cell protein; endogenous in cells; host or cells: human peripheral blood mononuclear cells (hPBMCs)
Procedure, shortened: as §1

Structure (SMILES)	IKZF1 substrate protein remaining % [1]	GSPT1 substrate protein remaining % [2]	IKZF3 substrate protein remaining % [3]	pIC50 [4]	IKZF2 substrate protein remaining % [5]	CK1α substrate protein remaining % [6]	pIC50 [7]	WEE1 substrate protein remaining % [8]
O=C1CCN(N2Cc3cc(CN4CC=C(c5ccco5)CC4)ccc3C2=O)C(=O)N1 [GT-04874, 1-(5-((4-(furan-2-yl)-3,6-dihydropyridin-1(2H)-yl)methyl)-1-oxoisoindolin-2-yl)dihydropyrimidine-2,4(1H,3H)-dione]	A (0% ≤ substrate protein remaining % ≤80%)	A (0% ≤ substrate protein remaining % ≤80%)	A (0% ≤ substrate protein remaining % ≤80%)	6.00 to 6.30	B (80%< substrate protein remaining % ≤100%)	B (80%< substrate protein remaining % ≤100%)	6.52 to 7.00	A (0% ≤ substrate protein remaining % ≤80%)
O=C1CCN(N2Cc3cc(CN4CC=C(c5cncc(Cl)c5Cl)CC4)ccc3C2=O)C(=O)N1 [GT-06393, 1-(5-((4,5-dichloro-3′,6′-dihydro-[3,4′-bipyridin]-1′ (2′H)-yl)methyl)-1-oxoisoindolin-2-yl)dihydropyrimidine-2,4(1H,3H)-dione]	B (80%< substrate protein remaining % ≤100%)	A (0% ≤ substrate protein remaining % ≤80%)	A (0% ≤ substrate protein remaining % ≤80%)	–	A (0% ≤ substrate protein remaining % ≤80%)	A (0% ≤ substrate protein remaining % ≤80%)	6.00 to 6.30	A (0% ≤ substrate protein remaining % ≤80%)
CC1(C)CCC(CN2CC3CC(C2)N3Cc2ccc3c(c2)CN(N2CCC(=O)NC2=O)C3=O)=C(c2ccc(Cl)cc2)C1 [GT-06456, 1-(5-((3-((4′-chloro-5,5-dimethyl-3,4,5,6-tetrahydro-[1,1′-biphenyl]-2-yl)methyl)-3,6-diazabicyclo[3.1.1]heptan-6-yl)methyl)-1-oxoisoindolin-2-yl)dihydropyrimidine-2,4(1H,3H)-dione]	A (0% ≤ substrate protein remaining % ≤80%)	A (0% ≤ substrate protein remaining % ≤80%)	A (0% ≤ substrate protein remaining % ≤80%)	–	A (0% ≤ substrate protein remaining % ≤80%)	A (0% ≤ substrate protein remaining % ≤80%)	6.52 to 7.00	A (0% ≤ substrate protein remaining % ≤80%)
O=C1CCN(N2C(=O)c3ccc(CN4CCN(c5ncc(C(F)(F)F)cc5Cl)CC4)cc3C2=O)C(=O)N1 [GT-07026, 5-((4-(3-chloro-5-(trifluoromethyl)pyridin-2-yl)piperazin-1-yl)methyl)-2-(2,4-dioxotetrahydropyrimidin-1(2H)-yl)isoindoline-1,3-dione]	B (80%< substrate protein remaining % ≤100%)	A (0% ≤ substrate protein remaining % ≤80%)	B (80%< substrate protein remaining % ≤100%)	6.00 to 6.30	B (80%< substrate protein remaining % ≤100%)	B (80%< substrate protein remaining % ≤100%)	–	A (0% ≤ substrate protein remaining % ≤80%)
O=C1CCN(N2Cc3cc(CN4CCN(C(c5cccc(F)c5)c5cccc(F)c5)CC4)ccc3C2=O)C(=O)N1 [GT-07293, 1-(5-((4-(bis(3-fluorophenyl)methyl)piperazin-1-yl)methyl)-1-oxoisoindolin-2-yl)dihydropyrimidine-2,4(1H,3H)-dione]	B (80%< substrate protein remaining % ≤100%)	A (0% ≤ substrate protein remaining % ≤80%)	A (0% ≤ substrate protein remaining % ≤80%)	6.52 to 7.00	A (0% ≤ substrate protein remaining % ≤80%)	B (80%< substrate protein remaining % ≤100%)	6.52 to 7.00	A (0% ≤ substrate protein remaining % ≤80%)
O=C1CCN(N2Cc3cc(CN4CCC(c5ccsc5)CC4)ccc3C2=O)C(=O)N1 [GT-07371, 1-(1-oxo-5-((4-(thiophen-3-yl)piperidin-1-yl)methyl)isoindolin-2-yl)dihydropyrimidine-2,4(1H,3H)-dione]	B (80%< substrate protein remaining % ≤100%)	A (0% ≤ substrate protein remaining % ≤80%)	A (0% ≤ substrate protein remaining % ≤80%)	–	B (80%< substrate protein remaining % ≤100%)	B (80%< substrate protein remaining % ≤100%)	6.00 to 6.30	B (80%< substrate protein remaining % ≤100%)
Cc1ccc(C2CCN(Cc3ccc4c(c3)CN(N3CCC(=O)NC3=O)C4=O)CC2)s1 [GT-07425, 1-(5-((4-(5-methylthiophen-2-yl)piperidin-1-yl)methyl)-1-oxoisoindolin-2-yl)dihydropyrimidine-2,4(1H,3H)-dione]	B (80%< substrate protein remaining % ≤100%)	A (0% ≤ substrate protein remaining % ≤80%)	B (80%< substrate protein remaining % ≤100%)	–	B (80%< substrate protein remaining % ≤100%)	B (80%< substrate protein remaining % ≤100%)	6.00 to 6.30	B (80%< substrate protein remaining % ≤100%)
O=C1CCN(N2Cc3cc(CN4CC=C(c5ccnc(Cl)c5Cl)CC4)ccc3C2=O)C(=O)N1 [GT-07432, 1-(5-((2′,3′-dichloro-3,6-dihydro-[4,4′-bipyridin]-1(2H)-yl)methyl)-1-oxoisoindolin-2-yl)dihydropyrimidine-2,4(1H,3H)-dione]	A (0% ≤ substrate protein remaining % ≤80%)	A (0% ≤ substrate protein remaining % ≤80%)	A (0% ≤ substrate protein remaining % ≤80%)	6.00 to 6.30	A (0% ≤ substrate protein remaining % ≤80%)	A (0% ≤ substrate protein remaining % ≤80%)	6.30 to 6.52	A (0% ≤ substrate protein remaining % ≤80%)
O=C1CCN(N2Cc3cc(CN4CCC(c5cccs5)CC4)ccc3C2=O)C(=O)N1 [GT-07511, 1-(1-oxo-5-((4-(thiophen-2-yl)piperidin-1-yl)methyl)isoindolin-2-yl)dihydropyrimidine-2,4(1H,3H)-dione]	A (0% ≤ substrate protein remaining % ≤80%)	A (0% ≤ substrate protein remaining % ≤80%)	B (80%< substrate protein remaining % ≤100%)	6.00 to 6.30	A (0% ≤ substrate protein remaining % ≤80%)	A (0% ≤ substrate protein remaining % ≤80%)	6.00 to 6.30	A (0% ≤ substrate protein remaining % ≤80%)
Cn1cc(C2CCN(Cc3ccc4c(c3)CN(N3CCC(=O)NC3=O)C4=O)CC2)c2ccc(F)cc21 [GT-07575, 1-(5-((4-(6-fluoro-1-methyl-1H-indol-3-yl)piperidin-1-yl)methyl)-1-oxoisoindolin-2-yl)dihydropyrimidine-2,4(1H,3H)-dione]	A (0% ≤ substrate protein remaining % ≤80%)	A (0% ≤ substrate protein remaining % ≤80%)	A (0% ≤ substrate protein remaining % ≤80%)	6.52 to 7.00	A (0% ≤ substrate protein remaining % ≤80%)	A (0% ≤ substrate protein remaining % ≤80%)	6.52 to 7.00	A (0% ≤ substrate protein remaining % ≤80%)
